# Results taken from publication PMC9607644, “Glycoconjugation of Quinoline Derivatives Using the C-6 Position in Sugars as a Strategy for Improving the Selectivity and Cytotoxicity of Functionalized Compounds” (Molecules, 2022).
# Marks after values point to notes of the source that are not given here.
# How the values were obtained:
# MCF-7 cells = experiment: MTT cytotoxicity assay, MCF-7; format: cell-based, human; conditions: for IC50: Homo sapiens, MCF7, incubation time 72 h; for IC50 / growth inhibitory activity in words, MCF-7: MTT; for Selectivity Index (SI) MCF-7: IC50 NHDF-Neo / IC50 MCF-7, 72 h incubation
# Protocol: (§1) An in vitro biological test package was performed for the obtained derivatives. […] The MTT test is a colorimetric method for detecting proliferating cells. It is based on the ability of the enzyme mitochondrial dehydrogenase to convert yellow tetrazole salt (MTT) into purple formazan. The amount of the product formed in the reaction, determined spectrophotometrically, is proportional to the number of living cells.
# (§2) The in vitro cytotoxicity of the test compounds was determined by the MTT (3-[4,5–dimethylthiazol-2-yl]-2,5-diphenyltetrazolium bromide) test (Sigma-Aldrich, Taufkirchen, Germany) according to the manufacturer’s protocol. At the beginning, for each cell line were determined the optimal seeding densities to ensure exponential growth throughout the experimental period. The confluent layer of cells were trypsinized, collected, and suspended in a growth medium. […] Then, the culture medium was replaced with solutions of different concentrations of test compounds in a fresh medium. Stock solutions of test compounds were prepared in DMSO and diluted to final concentrations with appropriate volumes of the growth medium directly before the experiment. Cells suspended in a medium supplemented with 0.5% DMSO (the amount of DMSO necessary to dissolve the highest dose of the respective sample) were used as a control of the experiment. […] The compound-treated cells were incubated for a further 24–72 h. […] After this time, the MTT dye was carefully removed, and the acquired formazan crystals were dissolved by DMSO (Chempur, Piekary Śląskie, Poland). The proliferation was evaluated by measuring the formazan product’s absorbance at a wavelength of 570 nm with a microplate spectrophotometer (Epoch, BioTek, Winooski, VT, USA). All experiments were conducted in triplicate with four technical repeats for each tested concentration. Results were expressed as the percentage change in the viability of the test cells relative to the untreated control cells and calculated as the inhibitory concentration (IC50). […] The results are expressed as the average value ± standard deviation (SD).
# HCT-116 cells = experiment: MTT cytotoxicity assay, HCT-116; format: cell-based, human; conditions: for IC50: Homo sapiens, HCT-116; for IC50 / growth inhibitory activity in words, HCT-116: MTT
# Protocol: as §1, §2
# NHDF-Neo cells = experiment: MTT cytotoxicity assay, NHDF-Neo; format: cell-based; conditions: Homo sapiens, incubation time 72 h
# Protocol: An in vitro biological test package was performed for the obtained derivatives. All newly synthesized compounds were assessed for their cytotoxic activity against human cell lines with increased GLUT expression: the colon cancer cell line (HCT-116) and the breast cancer cell line (MCF-7), as well as on normal human dermal fibroblasts cells (NHDF-Neo), using the MTT assay (3-(4,5-dimethylthiazol-2-yl)-2,5-diphenyltetrazolium bromide). The MTT test is a colorimetric method for detecting proliferating cells. It is based on the ability of the enzyme mitochondrial dehydrogenase to convert yellow tetrazole salt (MTT) into purple formazan. The amount of the product formed in the reaction, determined spectrophotometrically, is proportional to the number of living cells. The antiproliferative activity was expressed as the concentration that caused 50% inhibition of the growth of the population of cells treated with the test compounds relative to the control cells (inhibitory concentration activity—IC50). Table 1 and Table 2 summarize the IC50 values calculated for all tested compounds.
# The in vitro cytotoxicity of the test compounds was determined by the MTT (3-[4,5–dimethylthiazol-2-yl]-2,5-diphenyltetrazolium bromide) test (Sigma-Aldrich, Taufkirchen, Germany) according to the manufacturer’s protocol. At the beginning, for each cell line were determined the optimal seeding densities to ensure exponential growth throughout the experimental period. The confluent layer of cells were trypsinized, collected, and suspended in a growth medium. The cell suspension were then seeded into 96-well plates at a density of 1 × 10^4 or 2 × 10^3 (HCT-116) or 5 × 10^3 (MCF-7, NHDF-Neo) per well and incubated for 24 h under standard conditions (5% CO2, 37 °C). Then, the culture medium was replaced with solutions of different concentrations of test compounds in a fresh medium. Stock solutions of test compounds were prepared in DMSO and diluted to final concentrations with appropriate volumes of the growth medium directly before the experiment. Cells suspended in a medium supplemented with 0.5% DMSO (the amount of DMSO necessary to dissolve the highest dose of the respective sample) were used as a control of the experiment. […] The compound-treated cells were incubated for a further 24–72 h. After that, the medium was removed and the MTT solution (50 µL, 0.5 mg/mL in PBS) was added into each well and incubated for another 3 h under standard conditions (5% CO2, 37 °C). After this time, the MTT dye was carefully removed, and the acquired formazan crystals were dissolved by DMSO (Chempur, Piekary Śląskie, Poland). The proliferation was evaluated by measuring the formazan product’s absorbance at a wavelength of 570 nm with a microplate spectrophotometer (Epoch, BioTek, Winooski, VT, USA). All experiments were conducted in triplicate with four technical repeats for each tested concentration. Results were expressed as the percentage change in the viability of the test cells relative to the untreated control cells and calculated as the inhibitory concentration (IC50). The IC50 values were defined as the drug concentration that was necessary to reduce cell proliferation to 50% of the untreated control and this parameter was calculated using CalcuSyn software (version 2.0, Biosoft, Cambridge, UK). The results are expressed as the average value ± standard deviation (SD).
# [1] = IC50 NHDF-Neo / IC50 HCT-116, HCT-116 incubation time 24 h
# [2] = IC50 NHDF-Neo / IC50 HCT-116, 72 h incubation
Compound,IC50 (MCF-7 cells),IC50 (HCT-116 cells; incubation time 24 h),also measured
"[N-]=[N+]=NC[C@H]1OC(O)[C@H](O)[C@@H](O)[C@H]1O (stereo partly drawn) [Compound 11, 6-azido-6-deoxy-D-galactopyranose]",> 800 µM,> 800 µM,
CC(=O)O[C@@H]1[C@@H](OC(C)=O)[C@@H](O[C@H]2O[C@H](Cn3cc(CO)nn3)[C@@H](OC(C)=O)[C@H](OC(C)=O)[C@H]2OC(C)=O)O[C@H](Cn2cc(CO)nn2)[C@H]1OC(C)=O [Compound 35],> 800 µM,> 800 µM,
OC1O[C@H](Cn2cc(COc3cccc4cccnc34)nn2)[C@H](O)[C@H](O)[C@H]1O (stereo partly drawn) [Compound B-2],156 ± 7.4 µM,293 ± 8 µM,Selectivity Index (SI) MCF-7 (MCF-7 cells): 1.74; Selectivity Index (SI) HCT-116 (HCT-116 cells; [1]): 0.93 ^b; IC50 (NHDF-Neo cells): 271.6 ± 0.35 µM
"C#CCNC(=O)[C@H]1O[C@@H](OC(C)=O)[C@H](OC(C)=O)[C@@H](OC(C)=O)[C@@H]1OC(C)=O [Compound 15, 1,2,3,4-tetra-O-acetyl-N-(prop-2-yn-1-yl)-β-D-glucopyranuronic acid amide]",714 ± 15.7 µM,584 ± 9.39 µM,
CC(=O)OC1O[C@H](Cn2cc(CO)nn2)[C@@H](OC(C)=O)[C@H](OC(C)=O)[C@H]1OC(C)=O (stereo partly drawn) [Compound 29],> 800 µM,> 800 µM,
OCc1cn(C[C@H]2O[C@H](O[C@H]3O[C@H](Cn4cc(CO)nn4)[C@@H](O)[C@H](O)[C@H]3O)[C@H](O)[C@@H](O)[C@@H]2O)nn1 [Compound 36],> 800 µM,> 800 µM,
O=C(NCc1cn(CCCOc2cccc3cccnc23)nn1)[C@H]1OC(O)[C@H](O)[C@@H](O)[C@@H]1O (stereo partly drawn) [Compound C-3],706.6 ± 2.87 µM,> 800 µM,"growth inhibitory activity in words, MCF-7 (MCF-7 cells): inactive; IC50 (HCT-116 cells; incubation time 72 h): 767 ± 2.39 µM; growth inhibitory activity in words, HCT-116 (HCT-116 cells): inactive; IC50 (NHDF-Neo cells): > 800 µM"
CC(=O)OC1O[C@H](C(=O)NCc2cn(CCO)nn2)[C@@H](OC(C)=O)[C@H](OC(C)=O)[C@H]1OC(C)=O (stereo partly drawn) [Compound 33],> 800 µM,> 800 µM,
"[N-]=[N+]=NC[C@H]1O[C@H](O[C@H]2O[C@H](CN=[N+]=[N-])[C@@H](O)[C@H](O)[C@H]2O)[C@H](O)[C@@H](O)[C@@H]1O [Compound 20, 6,6′-diazido-6,6′-dideoxy-D-trehalose]",> 800 µM,> 800 µM,melting point: 118 °C
CC(=O)O[C@@H]1[C@@H](OC(C)=O)[C@@H](O[C@H]2O[C@H](Cn3cc(COc4cccc5cccnc45)nn3)[C@@H](OC(C)=O)[C@H](OC(C)=O)[C@H]2OC(C)=O)O[C@H](Cn2cc(COc3cccc4cccnc34)nn2)[C@H]1OC(C)=O [Compound D-1],30.7 ± 0.99 µM,46.3 ± 3.12 µM,Selectivity Index (SI) MCF-7 (MCF-7 cells): 1.12; IC50 (HCT-116 cells; incubation time 72 h): 26.3 ± 0.72 µM; Selectivity Index (SI) HCT-116 (HCT-116 cells; [2]): 1.31; IC50 (NHDF-Neo cells): 34.5 ± 0.39 µM
OCc1cn(C[C@H]2OC(O)[C@H](O)[C@@H](O)[C@H]2O)nn1 (stereo partly drawn) [Compound 32],> 800 µM,> 800 µM,
"C#CCNC(=O)[C@H]1OC(O)[C@H](O)[C@@H](O)[C@@H]1O (stereo partly drawn) [Compound 16, N-(prop-2-yn-1-yl)-D-glucopyranuronic acid amide]",> 800 µM,> 800 µM,
"CC(=O)OC1O[C@H](CN=[N+]=[N-])[C@H](OC(C)=O)[C@H](OC(C)=O)[C@H]1OC(C)=O (stereo partly drawn) [Compound 12, 1,2,3,4-tetra-O-acetyl-6-azido-6-deoxy-D-galactopyranose]",641.2 ± 1.79 µM,> 800 µM,
CC(=O)OC1O[C@H](Cn2cc(CO)nn2)[C@H](OC(C)=O)[C@H](OC(C)=O)[C@H]1OC(C)=O (stereo partly drawn) [Compound 31],> 800 µM,> 800 µM,
CC(=O)O[C@@H]1O[C@H](C(=O)NCc2cn(CCOc3cccc4cccnc34)nn2)[C@@H](OC(C)=O)[C@H](OC(C)=O)[C@H]1OC(C)=O [Compound C-1],224 ± 7.34 µM,173 ± 6.68 µM,"Selectivity Index (SI) MCF-7 (MCF-7 cells): 0.96; growth inhibitory activity in words, MCF-7 (MCF-7 cells): did not show significant ability to inhibit cell growth; IC50 (HCT-116 cells; incubation time 72 h): 81.5 ± 3.36 µM; Selectivity Index (SI) HCT-116 (HCT-116 cells; [2]): 2.64; growth inhibitory activity in words, HCT-116 (HCT-116 cells): did not show significant ability to inhibit cell growth; IC50 (NHDF-Neo cells): 215 ± 3.1 µM"
CC(=O)OC1O[C@H](Cn2cc(COc3cccc4cccnc34)nn2)[C@H](OC(C)=O)[C@H](OC(C)=O)[C@H]1OC(C)=O (stereo partly drawn) [Compound B-1],36.67 ± 0.03 µM,75.1 ± 1.3 µM,Selectivity Index (SI) MCF-7 (MCF-7 cells): 2.22; Selectivity Index (SI) HCT-116 (HCT-116 cells; [1]): 1.08 ^b; IC50 (NHDF-Neo cells): 81.42 ± 0.52 µM
CC(=O)O[C@@H]1O[C@H](C(=O)NCc2cn(CCCOc3cccc4cccnc34)nn2)[C@@H](OC(C)=O)[C@H](OC(C)=O)[C@H]1OC(C)=O [Compound C-2],157 ± 7.86 µM,94.2 ± 1.48 µM,"Selectivity Index (SI) MCF-7 (MCF-7 cells): 2.03; growth inhibitory activity in words, MCF-7 (MCF-7 cells): did not show significant ability to inhibit cell growth; IC50 (HCT-116 cells; incubation time 72 h): 62.35 ± 0.32 µM; Selectivity Index (SI) HCT-116 (HCT-116 cells; [2]): 5.11; growth inhibitory activity in words, HCT-116 (HCT-116 cells): did not show significant ability to inhibit cell growth; IC50 (NHDF-Neo cells): 318.5 ± 3.09 µM"
"[N-]=[N+]=NC[C@H]1OC(O)[C@H](O)[C@@H](O)[C@@H]1O (stereo partly drawn) [Compound 6, 6-azido-6-deoxy-D-glucopyranose]",> 800 µM,> 800 µM,
O=C(NCc1cn(CCO)nn1)[C@H]1OC(O)[C@H](O)[C@@H](O)[C@@H]1O (stereo partly drawn) [Compound 34],> 800 µM,> 800 µM,
"CC(=O)O[C@@H]1[C@@H](OC(C)=O)[C@@H](O[C@H]2O[C@H](CN=[N+]=[N-])[C@@H](OC(C)=O)[C@H](OC(C)=O)[C@H]2OC(C)=O)O[C@H](CN=[N+]=[N-])[C@H]1OC(C)=O [Compound 23, 2,3,4,2′,3′,4′-hexa-O-acetyl-6,6′-diazido-6,6′-dideoxy-D-trehalose]",> 800 µM,> 800 µM,melting point: 92 to 93 °C
"CC(=O)OC1O[C@H](CN=[N+]=[N-])[C@@H](OC(C)=O)[C@H](OC(C)=O)[C@H]1OC(C)=O (stereo partly drawn) [Compound 5, 1,2,3,4-tetra-O-acetyl-6-azido-6-deoxy-D-glucopyranose]",201 ± 2.09 µM,> 800 µM,
OCc1cn(C[C@H]2OC(O)[C@H](O)[C@@H](O)[C@@H]2O)nn1 (stereo partly drawn) [Compound 30],> 800 µM,> 800 µM,
